In US9920089B2, “Process for producing a solid form of abiraterone acetate” (ZACH SYSTEM, priority 2013, dated 2018):

Columns and labels:
[1] = Particle size distribution by laser diffraction, dry powder method (Malvern Mastersizer 2000); format: physicochemical; conditions: milled dried product after spherical agglomeration
Procedure: PSD was determined by laser diffraction-dry powder method with a Malvern Mastersizer 2000 device.

[2] = cited from earlier work
human cytochrome P45017α = molecular target: T1, human cytochrome P45017α (Homo sapiens, UniProt P05093); conditions: qualitative statement; cited from earlier work
T1 sequence (P05093 1-508): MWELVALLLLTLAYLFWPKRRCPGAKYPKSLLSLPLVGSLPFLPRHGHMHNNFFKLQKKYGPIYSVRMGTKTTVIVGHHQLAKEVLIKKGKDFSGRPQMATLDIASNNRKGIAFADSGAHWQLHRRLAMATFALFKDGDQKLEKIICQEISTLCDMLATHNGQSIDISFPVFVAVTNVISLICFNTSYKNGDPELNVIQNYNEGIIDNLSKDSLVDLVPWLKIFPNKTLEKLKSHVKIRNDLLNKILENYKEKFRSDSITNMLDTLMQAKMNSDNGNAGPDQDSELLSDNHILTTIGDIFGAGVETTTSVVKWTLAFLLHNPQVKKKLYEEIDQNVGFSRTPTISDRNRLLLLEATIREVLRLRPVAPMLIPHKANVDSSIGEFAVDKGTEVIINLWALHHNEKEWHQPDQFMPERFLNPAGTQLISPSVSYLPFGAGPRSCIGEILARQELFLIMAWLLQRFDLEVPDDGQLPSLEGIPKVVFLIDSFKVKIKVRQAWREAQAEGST

Row | Measured Particle Size Distribution D(0.5) [1] | Structure (SMILES) | further results
1 | 4.9 μm | CC(=O)O[C@H]1CC[C@@]2(C)C(=CC[C@@H]3[C@@H]2CC[C@]2(C)C(c4cccnc4)=CC[C@@H]32)C1 [Example 1, abiraterone acetate] | –
2 | – | CC(=O)O[C@H]1CC[C@@]2(C)C(=CC[C@@H]3[C@@H]2CC[C@]2(C)C(c4cccnc4)=CC[C@@H]32)C1 [Abiraterone acetate, (3β)-17-(3-pyridinyl)-androsta-5,16-dien-3-yl acetate] | Solubility in 0.1N HCl solution ([2]; 0.1N HCl solution): very slightly soluble; Solubility in aqueous media ([2]; aqueous media, pH range 2.0 to 12.9): practically insoluble; Solubility in organic solvents ([2]; organic solvents): soluble to freely soluble
3 | 6.5 μm | CC(=O)O[C@H]1CC[C@@]2(C)C(=CC[C@@H]3[C@@H]2CC[C@]2(C)C(c4cccnc4)=CC[C@@H]32)C1 [Example 4, abiraterone acetate] | –
4 | – | C[C@]12CC[C@H](O)CC1=CC[C@@H]1[C@@H]2CC[C@]2(C)C(c3cccnc3)=CC[C@@H]12 [Abiraterone, 17-(3-pyridyl)-androsta-5,16-dien-3β-ol] | Inhibition of human cytochrome P45017α (human cytochrome P45017α): potent inhibitor
5 | 10.7 μm | CC(=O)O[C@H]1CC[C@@]2(C)C(=CC[C@@H]3[C@@H]2CC[C@]2(C)C(c4cccnc4)=CC[C@@H]32)C1 [Example 2, abiraterone acetate] | –
6 | 3.7 μm | CC(=O)O[C@H]1CC[C@@]2(C)C(=CC[C@@H]3[C@@H]2CC[C@]2(C)C(c4cccnc4)=CC[C@@H]32)C1 [Example 3, abiraterone acetate] | –
